The experiment deals with Plasmodium falciparum phosphatidylserine decarboxylase (PfPSD) (Plasmodium falciparum, UniProt Q9GPP8). Description: radiometric decarboxylase assay. In kind it is biochemical.
Plasmodium falciparum phosphatidylserine decarboxylase (PfPSD), sequence (Q9GPP8 41-315): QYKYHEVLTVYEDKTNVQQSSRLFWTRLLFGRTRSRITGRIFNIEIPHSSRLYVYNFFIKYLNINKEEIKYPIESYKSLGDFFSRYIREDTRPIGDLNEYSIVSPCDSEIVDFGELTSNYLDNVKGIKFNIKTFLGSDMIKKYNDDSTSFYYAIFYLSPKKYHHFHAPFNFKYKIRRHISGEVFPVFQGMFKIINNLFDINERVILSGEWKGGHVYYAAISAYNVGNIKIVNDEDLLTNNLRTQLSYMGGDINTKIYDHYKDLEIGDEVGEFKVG
Plasmodium falciparum phosphatidylserine decarboxylase (PfPSD), sequence (Q9GPP8 316-362): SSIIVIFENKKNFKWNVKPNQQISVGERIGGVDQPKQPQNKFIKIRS

In general, IC50 refers to the concentration at which inhibition is half-maximal. Compound `CCCc1ccc(Nc2ccnc3cc(Cl)ccc23)cc1` [7CPQA, 7-chloro-N-(4-propylphenyl)-4-quinolinamine] showed an IC50 of 10 to 100 µM.

Values taken from publication PMC4898484 (Molecular microbiology, 2015).
